Legend:
Type in all cases: in vivo, human
[1] = system: Prostate-specific antigen; assay: Serum prostate-specific antigen levels in a metastatic PCa patient; details: week 0 10.7 ng/ml
Method: (§1) Patient Information A hormone-naïve person with newly diagnosed metastatic PCa was consented and was enrolled into the study. They were initiated on combined androgen blockade with bicalutamide and goserelin acetate. Magnetic resonance imaging scans were acquired at weeks 0 (baseline), 2, and 8 following treatment initiation which were used to generate the Functional Diffusion Maps at the 2 and 8 week time intervals. Due to pain and pathologic fracture, the patient was also treated with palliative radiation therapy encompassing the sacrum and ilium at 2 weeks post initiation of androgen deprivation therapy.
Clinical Correlates Serum samples were obtained at weeks 0 (baseline), 2, and 8 following treatment initiation. Prostate-specific antigen levels were quantified and expressed in […] of plasma.

[2] = system: metastatic PCa osseous lesions; assay: Tumor volume by T2-weighted MRI in a metastatic PCa patient; details: for Tumor volume, Ilium: pretreatment 2.34; for Tumor volume, Femoral Head: pretreatment 52.97; for Tumor volume, Sacrum: pretreatment 68.29
Method: as §1
(§2) Magnetic Resonance Imaging Magnetic resonance imaging (MRI) examinations including diffusion-weighted and standard anatomic sequences were performed before and 2 weeks after initiation of therapy. MR imaging was performed on a 3-T scanner (Achieva model; Philips Medical Systems, Bothell, Wash.) using a quadrature body coil for transmission and a six-channel cardiac coil for reception. Standard sequences for depiction of anatomy and tumor extent included axial proton density (repetition time [TR]/echo time [TE]=2700/30 msec, two averages) turbo spin-echo and axial T2-weighted turbo spin-echo (TR/TE=7800/60 msec, two averages) with fat suppression through a short inversion time (TI=200 msec). Geometry for these sequences was as follows: field of view, 281 mm right/left by 200 mm anterior/posterior; thirty-eight 4-mm sections with a 1-mm gap; 256—232 acquisition matrix for proton density; and 248 —165 for T2-weighted scans. Diffusion-weighted scans were acquired using fat-suppressed, single-shot, spinecho, echo-planar imaging to reduce motion artifact and parallel imaging (SENSE factor=2) to reduce spatial distortion. Geometry of the diffusion-weighted scans was as follows: 350 mm right/left by 302 mm anterior/posterior; thirty 5-mm sections with a 1-mm gap; 200—172 acquisition matrix; TR/TE=2000/58 msec; and 8 averages for low (b=0 sec/mm2) and 16 averages for high (b=800 sec/mm2) diffusion-sensitivity scans. Apparent diffusion coefficient (ADC) maps were calculated in the routine manner given by the logarithm of the ratio of low-b and high-b images, then scaled by the inverse of b-value difference.
At the time of initial diagnosis, the patient underwent Tc-99 m MDP BS to ascertain the extent of skeletal involvement. […] After receiving androgen deprivation therapy for 7 weeks, increased sclerosis was observed by CT (FIG. 9B, arrow). […] Further characterization of the lesions was achieved by MRI. […] Tumor volumes were quantified using ROI analysis of each of the three tumors evaluated using T2-weighted MR images at weeks 0, 2, and 8 post-treatment initiation. […] Overall, tumor volume measurements were unable to detect significant perturbations in tumor size in the 8-week timeframe following treatment initiation.

[3] = system: metastatic PCa osseous lesions; assay: fDM and mean ADC diffusion MRI of osseous lesions in a metastatic PCa patient; details: for mean ADC, femoral head lesion: baseline 74.5×10^−6; for mean ADC, sacral lesion: baseline 110.8×10^−6; for mean ADC, ilium lesion: baseline 78.0×10^−6
Method: as §1, §2
Diffusion Analysis Lesions in MR images acquired at weeks 2 and 8 were coregistered to their corresponding pretreatment MR images using an automatic algorithm based on maximizing mutual information. Registration was accomplished for each individual tumor located in the sacrum, ilium, and femoral head regions after the images were cropped to localize the registration to a limited region-of-interest (ROI) containing a single lesion. Lesions were manually contoured by a radiologist who defined the ROI by inspection of all available image data. Diffusion-average data were generated for weeks 0, 2 and 8 using the ROI contours of each of the three lesions and the mean change in diffusion values were calculated. Computation of fDMs for each lesion at weeks 2 and 8 was accomplished by comparison of voxels within the tumor at weeks 2 and 8 with the pretreatment values (week 0) as previously described (see, e.g., Moffat B A, et al., (2005) Proc Natl Acad Sci USA 102 (15), 5524-5529; Hamstra D A, et al., (2005) Proc Natl Acad Sci USA 102 (46), 16759-16764; each herein incorporated by reference in their entireties) using MIAMI Fuse (University of Michigan, Ann Arbor, Mich.) (see, e.g., Meyer C R, et al., (1997) Med Image Anal 1 (3), 195-206; herein incorporated by reference in its entirety). The tumor was segmented into three different categories wherein the red voxels represent regions within the tumor where ADC values increased (>[…]), the blue voxels represent a decreased ADC (<[…]), and the green regions represent tumor diffusion values that were within these thresholds (e.g., unchanged). […]

[4] = Week 3 (so in the source), palliative radiation at 2 weeks
[5] = 8 weeks posttreatment, palliative radiation at 2 weeks
[6] = 8 weeks, palliative radiation at 2 weeks

bicalutamide and goserelin acetate
PSA level ([1]; week 2 posttreatment): 1.3 ng/mL | PSA level ([1]; week 8 posttreatment): 0.3 ng/mL | Tumor volume, Ilium ([2]; Week 2): 2.76 cm^3 | Tumor volume, Femoral Head ([2]; Week 2): 51.52 cm^3 | Tumor volume, Sacrum ([2]; Week 2): 69.46 cm^3 | Tumor volume, Ilium [2, 4]: 2.56 cm^3 | Tumor volume, Femoral Head ([2]; Week 3 (so in the source)): 51.35 cm^3 | Tumor volume, Sacrum [2, 4]: 72.21 cm^3 | mean percentage change from baseline of mean ADC, three lesions ([3]; 2 weeks): −0.7±4.7% | decrease of mean ADC with respect to pre-therapy baseline, three lesions ([3]; 2 weeks post-therapy (FIG. 12 legend)): 0.7±4.8% | fDM, tumor volume with increased ADC, ilium lesion ([3]; 2 weeks posttreatment): 24.5% | fDM, tumor volume with increased ADC, sacral lesion ([3]; 2 weeks posttreatment): 26.4% | decrease in mean ADC, sacral lesion ([3]; 2 weeks vs baseline): ~10% | mean ADC, femoral head lesion ([3]; 2 weeks): 77.8×10^−6 mm^2/sec | mean ADC, sacral lesion ([3]; 2 weeks): 99.8×10^−6 mm^2/sec | mean percentage change (increase) from baseline of mean ADC, three lesions ([3]; 8 weeks): 8.3±4.3% | fDM, tumor volume with increased ADC, femoral head lesion ([3]; 8 weeks posttreatment): 36.4% | fDM, tumor volume with increased ADC, ilium lesion [3, 5]: 47.1% | fDM, tumor volume with increased ADC, sacral lesion [3, 5]: 29.0% | increase in mean ADC above baseline, sacral lesion ([3]; 8 weeks vs baseline): ~5% | increase in mean ADC, ilium lesion ([3]; 8 weeks vs baseline): 16.7% | mean ADC, femoral head lesion ([3]; 8 weeks): 76.8×10^−6 mm^2/sec | mean ADC, ilium lesion [3, 6]: 91.1×10^−6 mm^2/sec | mean ADC, sacral lesion [3, 6]: 116.2×10^−6 mm^2/sec | average fDM percent of tumor volume with increased diffusion, three lesions ([3]; week 2): 24±1.6% | mean ADC, ilium lesion ([3]; week 2): 80.7×10^−6 mm^2/sec | fDM, volume with significant increase in ADC, femoral head lesion ([3]; week 2 posttreatment): 21.1% | average fDM percent of tumor volume with increased diffusion, three lesions ([3]; week 8): 38±5.2%
